Here are results for three compounds from PMC12751025, “α‑Aminoboronic Acid Moieties in Boro Dipeptides Modulate Proteasome Subunit Selectivity and Provide Access to Compounds with Potent Anticancer and Anti-Inflammatory Activity” (Journal of Medicinal Chemistry, 2025).

SMILES strings stand for the structures. Bounds are passed on as bounds.

For one data set, the target named is T1, β5c subunit of human cCP (Homo sapiens, UniProt P20618+P28074).
T1 construct: purchased Boston Biochem, Inc
Kind of data set: IC50 determination with fluorogenic substrate Ac-WLA-AMC. In kind it is biochemical.

The next data set addresses T2, β2c subunit of human cCP (Homo sapiens, UniProt P49720+Q99436).
T2 construct: purchased Boston Biochem, Inc
The experiment in a line: IC50 determination with fluorogenic substrate Ac-RLR-AMC (PA28β added). In kind it is biochemical.

The next data set deals with β5i subunit of human iCP (Homo sapiens, UniProt P20618+P28062). Kind of data set: IC50 determination with fluorogenic substrate Ac-ANW-AMC. To be noted: for IC50: IC50 β5i.
In a further data set the target is β1i subunit of human iCP (Homo sapiens, UniProt P28065+P40306). Kind of data set: IC50 determination with subunit-specific fluorogenic substrate Ac-PAL-AMC. The note with it: for IC50: IC50 β1i.
In another data set the target is T3, β1c subunit of human cCP (Homo sapiens, UniProt P28072+Q99436).
T3 construct: purchased Boston Biochem, Inc
Kind of data set: IC50 determination with subunit-specific fluorogenic substrate Ac-nLPnLD-AMC. The format is biochemical.

A further data set addresses β2i subunit of human iCP (Homo sapiens, UniProt P40306+P49720). The experiment in a line: IC50 determination with fluorogenic substrate Ac-RLR-AMC (PA28β added).
Data set [1] can be described thus: Solubility remark (exclusion from cell-based assays). In kind it is physicochemical. The note with it: reason for not using in cell-based assays.
For data set [2], the system named is all subunits of the human cCP and iCP. The experiment in a line: Subunit inhibition profile and preference across cCP and iCP subunits. In kind it is biochemical.
Description: (§1) The final assay mixtures contained 0.4 nM human iCP or cCP in assay buffer (50 mM Tris-HCl, 0.5 mM EDTA, pH 7.4, addition of PA28β for β2c and β2i subunits). […] After incubation at 37 °C for 30 min, the reaction was initiated by the addition of the substrate Ac-nLPnLD-AMC for β1c, Ac-PAL-AMC for β1i, Ac-RLR-AMC for β2c and β2i, Ac-WLA-AMC for β5c, and Ac-ANW-AMC for β5i. Fluorescence was monitored at 460 nm (excitation at 360 nm) for 60 min at 37 °C. The reaction progress was recorded and the initial linear phases were used to determine the velocity. The IC50 values were calculated using GraphPad Prism software (GraphPad Software, San Diego, CA, USA), and the results represent the mean values of at least three independent determinations.
Another data set concerns β5c. To be noted: in parentheses in Table S2; SI reference list; read-out: IC50 β5c, previously published data; cited from earlier work.
Another data set deals with β2i. To be noted: in parentheses in Table S2; SI reference list; read-out: IC50 β2i, previously published data; cited from earlier work.
The next data set relates to β1c. To be noted: in parentheses in Table S2; SI reference list; read-out: IC50 β1c, previously published data; cited from earlier work.
The next data set concerns MM.1S. Set-up: method as in previous findings. The note with it: reference number not given; ref previous findings; read-out: IC50 for the reduction of MM.1S viability; cited from earlier work.
The next data set deals with β5i. To be noted: in parentheses in Table S2; SI reference list; read-out: IC50 β5i, previously published data; cited from earlier work.
Another data set relates to β2c. To be noted: in parentheses in Table S2; SI reference list; read-out: IC50 β2c, previously published data; cited from earlier work.
The test system of a further data set is β1i. The note with it: in parentheses in Table S2; SI reference list; read-out: IC50 β1i, previously published data; cited from earlier work.
Another data set in a line: Cytotoxicity MTS assay. The format is cell-based. The note with it: human, MM.1S multiple myeloma cells, 250 nM, 72 h (Figure S3), read-out: viable cells. For orientation: Formazan colour is commonly taken as a measure of viable cells.
The mark [3] stands for this setting: human cCP, mean of at least three experiments, NA: not active at 50 μM.
Where [4] appears, read: human iCP, mean of at least three experiments, NA: not active at 50 μM.

Description for Cytotoxicity MTS assay: Cytotoxicity was determined using the MTS cell proliferation assay (CellTiter 96 AQueous One Solution Cell Proliferation Assay, Promega, Wisconsin, USA), which measures mitochondrial metabolic activity as a surrogate for cell viability. The assay was performed according to the manufacturer protocol. […] The cells were seeded in 96-well plates (15.000–30.000 cells/well). After 24 h incubation at 5% CO2 and 37 °C, the cells were treated either with DMSO (negative control) or solutions of the tested compounds in DMSO. After 24 or 72 h, MTS reagent was added. Cells were incubated for additional 2 h - 4 h, followed by the measurement of absorbance at 490 nm on the Tecan Spark microplate reader.
Description for β1c subunit of human cCP: (§2) The measurements of the residual activity of control compounds were carried out at final compound concentrations of 1 μM in the assay buffer (50 mM Tris-HCl, 0.5 mM ethylenediaminetetraacetic acid (EDTA), pH 7.4). Stock solutions of the compounds were prepared in DMSO. To the 35 μL of solution of the compound in the buffer, 35 μL of 0.4 nM human iCP (South Bay Bio, San Jose, CA, USA) or human cCP (Boston Biochem, Inc., Cambridge, MA, USA) was added. For assays evaluating the activity of β2c and β2i, the buffer was modified by adding the proteasomal activator PA28β (Boston Biochem, Inc., Cambridge, MA, USA) at a final concentration of 6 nM. […] The substrates used were acetyl-Nle-Pro-Nle-Asp-7-amino-4-methylcoumarin (Ac-nLPnLD-AMC, Bachem, Bubendorf, Switzerland) for β1c, acetyl-Pro-Ala-Leu-7-amino-4-methylcoumarin (Ac-PAL-AMC, Boston Biochem, Inc., Cambridge, MA, USA) for β1i, acetyl-Arg-Leu-Arg-7-amino-4-methylcoumarin (Ac-RLR-AMC, Bachem, Bubendorf, Switzerland) for β2c and β2i, acetyl-Trp-Leu-Ala-7-amino-4-methylcoumarin (Ac-WLA-AMC, Bachem, Bubendorf, Switzerland) for β5c, and acetyl-Ala-Asn-Trp-7-amino-4-methylcoumarin (Ac-ANW-AMC, Bachem, Bubendorf, Switzerland) for β5i. Progress of the reaction was measured using a BioTek Synergy HT microplate reader, monitoring fluorescence at 460 nm (excitation at 360 nm) for 60 min at 37 °C. The initial linear ranges were used to calculate the reaction velocity and determine the residual activity.
as §1
Description for β1i subunit of human iCP: as §2, §1
Description for β2c subunit of human cCP: Stock solutions of the compounds were prepared in DMSO. To the 35 μL of solution of the compound in the buffer, 35 μL of 0.4 nM human iCP (South Bay Bio, San Jose, CA, USA) or human cCP (Boston Biochem, Inc., Cambridge, MA, USA) was added. For assays evaluating the activity of β2c and β2i, the buffer was modified by adding the proteasomal activator PA28β (Boston Biochem, Inc., Cambridge, MA, USA) at a final concentration of 6 nM. […] The substrates used were acetyl-Nle-Pro-Nle-Asp-7-amino-4-methylcoumarin (Ac-nLPnLD-AMC, Bachem, Bubendorf, Switzerland) for β1c, acetyl-Pro-Ala-Leu-7-amino-4-methylcoumarin (Ac-PAL-AMC, Boston Biochem, Inc., Cambridge, MA, USA) for β1i, acetyl-Arg-Leu-Arg-7-amino-4-methylcoumarin (Ac-RLR-AMC, Bachem, Bubendorf, Switzerland) for β2c and β2i, acetyl-Trp-Leu-Ala-7-amino-4-methylcoumarin (Ac-WLA-AMC, Bachem, Bubendorf, Switzerland) for β5c, and acetyl-Ala-Asn-Trp-7-amino-4-methylcoumarin (Ac-ANW-AMC, Bachem, Bubendorf, Switzerland) for β5i. Progress of the reaction was measured using a BioTek Synergy HT microplate reader, monitoring fluorescence at 460 nm (excitation at 360 nm) for 60 min at 37 °C. The initial linear ranges were used to calculate the reaction velocity and determine the residual activity.
as §1
Description for β2i subunit of human iCP: as §2, §1
Description for β5c subunit of human cCP: as §2, §1
Description for β5i subunit of human iCP: as §2, §1

By IC50 is commonly meant the concentration at which inhibition is half-maximal. Take `O=C(N[C@@H](Cc1ccccc1)C(=O)N[C@H](B(O)O)c1ccc(Cl)cc1)c1cnccn1` [5d, ((R)-(4-Chlorophenyl)((S)-3-phenyl-2-(pyrazine-2-carboxamido)propanamido)methyl)boronic Acid]: the IC50 at β5c subunit of human cCP (setting [3]) turned out to be 114 nM; on β2c subunit of human cCP (setting [3]), 1850 nM; at β5i subunit of human iCP (setting [4]), 3 nM; against β1i subunit of human iCP (setting [4]), 17 nM; against β1c subunit of human cCP (setting [3]), 897 nM; on β2i subunit of human iCP, 74500 nM. Further, the “IC50 for β5i, fold lower than for β5c” value against β5i subunit of human iCP (β5i vs β5c) turned out to be 30 fold. For the same compound, at β1i subunit of human iCP (β1i vs β1c), the “IC50 for β1i, fold lower than for β1c” value was 50 fold. In addition, the solubility result in [1] is “limited solubility”.

Regarding `O=C(N[C@@H](Cc1ccccc1)C(=O)N[C@H](B(O)O)c1ccc(-c2ccccc2)cc1)c1cnccn1` [5h, ((R)-[1,1′-Biphenyl]-4-yl((S)-3-phenyl-2-(pyrazine-2-carboxamido)propanamido)methyl)boronic Acid], the IC50 on β5c subunit of human cCP (setting [3]) is 12 nM; against β5i subunit of human iCP (setting [4]), 24 nM; on β1i subunit of human iCP (setting [4]) it was 270 nM; against β1c subunit of human cCP (setting [3]), 1310 nM; on β1c subunit of human cCP (own assay), above 1000 nM; at β2i subunit of human iCP it was 260 nM. Further, the “IC50 β2c” value against β2c subunit of human cCP (setting [3]) is “no detectable inhibition”. Also, the solubility entry in data set [1] is given as “limited solubility”. Moreover, in [2], the “IC50 for both β5 subunits, fold better than IC50 for β1i” value is recorded as 10–20 fold.

With `O=C(N[C@@H](Cc1coc2ccccc12)B(O)O)[C@@H]1C[C@H]2CC[C@@H]1O2` [M3258], the IC50 was 1230 ± 90 nM at β5c subunit of human cCP (own assay); above 1000 nM on β2c subunit of human cCP (own assay); 2520 nM with β5c; 7.4 ± 1 nM on β5i subunit of human iCP (own assay); above 1000 nM against β1i subunit of human iCP (own assay); above 30 µM in the data set on β2i. The IC50 in the data set with β1c was above 30 µM; in the data set with MM.1S, 367 nM; in the data set on β5i, 4.1 nM; on β1c subunit of human cCP (own assay), above 1000 nM; in the data set with β2c it was above 30 µM; in the data set on β1i, above 30 µM. The IC50 against β2i subunit of human iCP was above 1000 nM. In “Cytotoxicity MTS assay”, the viability at 72 h, […] worked out at 87%.
